Assay results taken from article PMC6201103, “The Small-Compound Inhibitor K22 Displays Broad Antiviral Activity against Different Members of the Family Flaviviridae and Offers Potential as a Panviral Inhibitor” (Antimicrobial Agents and Chemotherapy, 2018).

What was measured:
Vero B4 cells = experiment: Proliferation/viability, MultiTox-Fluor multiplex cytotoxicity assay on Vero B4 cells; type: cell-based
Procedure: To evaluate the effect of K22 on cell viability, proliferation, as well as cytotoxicity, uninfected cells were treated with the compound at the concentrations specified above or with DMSO as a control. To determine the effect of K22 on cell viability, Vero cells were collected and labeled with the Fixable Aqua dead cell stain kit (Thermo Fisher Scientific) for 30 min on ice, before the cells were washed with cold PBS and fixed for flow cytometry analysis. As a positive control for cell death, cells were heated at 65°C for 30 min. The mean fluorescence intensity (MFI) was determined by flow cytometry analysis on a FACSCanto II flow cytometer (BD Bioscience) and evaluated using FlowJo (v.9.1) software. […] The compound was added at the concentrations indicated above, and cytotoxicity was determined at 24 and/or 48 h p.i. by determination of the absorbance at 490 nm using a plate reader (VersaMax [Molecular Devices, Wokingham, UK] or an EnSpire 2300 multilabel reader [PerkinElmer, Schwerzenbach, Switzerland]). Cell proliferation following compound treatment was determined using a MultiTox-Fluor multiplex cytotoxicity assay (catalog number G9200; Promega) according to the manufacturer's recommendations. The readout was performed using a multilabel reader (EnSpire 2300 multilabel reader; PerkinElmer) upon excitation at ∼400 nm and emission at ∼505 nm. […]

ZIKV = experiment: Combination treatment, ZIKV titers (TCID50) in Vero B4 cells; settings: 24 h p.i., Vero B4 cells

Row | Molecule | effect of IFN-α on cell viability (Vero B4 cells) | IFN-α doses effective against ZIKV (ZIKV; single treatment) [IU] | effect of single treatment on ZIKV viral titers (ZIKV; 10 μg/ml RBV) | effect of single treatment on ZIKV viral titers (ZIKV; 100 μg/ml and 1,000 μg/ml RBV)
1 | IFN-α | no effect on cell viability | ≥ 10 | – | –
2 | NC(=O)c1ncn([C@@H]2O[C@H](CO)[C@@H](O)[C@H]2O)n1 [RBV, ribavirin, reference compound] | – | – | moderately reduced the viral titers | significantly reduced viral titers
